The test system of one data set is BALB/c mice. The experiment in a line: Induction of anti-dsDNA antibodies after intravenous peptide injection. In kind it is in vivo, mouse. The settings on record: same dosages, frequencies and treatment period as MRL/lpr study, data not shown. From the text:
The ALW and PLP peptides were also intravenously injected into BALB/c mice with the same dosages, frequencies, and treatment period. […] All animal protocols were approved by the Hospital Research Ethics Committee.

Data set [1] is described as follows: Solubility of the peptides. In kind it is physicochemical. The note with it: for Maximum solubility: injection solution in saline. As for the experimental part:
For the in vivo study, 40 MRL/lpr mice were randomly divided into four groups. Mice in the ALW group (n = 12) received an intravenous injection of 100 μg/mL ALW peptide in saline every other day, mice in the PLP group (n = 12) were injected intravenously with 100 μg/mL PLP peptide in saline, mice in the NaCl group (n = 8) were given normal saline intravenously, and mice in the blank group (n = 8) were not treated. The dosages were decided in a preliminary experiment, showing that the concentration of anti-dsDNA IgG was about 34.74 ± 3.47 ng/mL in MRL/lpr mice aged 24 weeks. By calculating the molecular weights of anti-dsDNA IgG (150 kDa) to ALW peptide (1.4 kDa), the ALW concentration of 100 μg/mL is sufficient to maintain a high molar ratio (much higher than 5 times of anti-dsDNA IgG). In fact, the maximum solubility of PLP peptide is also 100 μg/mL, less than ALW peptide. Urine was collected every 2 weeks. Six weeks later, the mice were euthanized. Blood, urine, and kidneys were harvested for further analysis.

Data set [2] in a line: Plasma pharmacokinetics of the peptides after a single dose. In kind it is in vivo. The note with it: 8-week-old male CD1 mice, single intravenous dose 12.5 mg/kg, plasma 0-24 h, LC-MS/MS, WinNonlin 6.1; for MRT: male, CD1, mouse, plasma, iv, 12.5 mg/kg; for clearance: read-out: Cl (plasma clearance); for Vd: read-out: Vss. As for the experimental part:
(§1) Two 12-amino acid peptides (ALWPPNLHAWVP [ALW]; PLPHNPWVLAAW [PLP]) were synthetized by Sangon Biotech Company (China). The PLP peptide was a scrambled peptide with amino acid residues identical to ALW peptide. The first and last amino acids of both peptides are D-form, and the others are L-form. To study the pharmacokinetic characteristics of both peptides in vivo, 8-week-old male CD1 mice were administrated with ALW or PLP peptide at a single dose of 12.5 mg/kg. Plasma samples were collected at each time point before (0) and 0.083, 0.25, 0.5, 1, 2, 4, 8, and 24 h after administration. To assess the biodistribution of ALW peptide in vivo, tissues including the kidney, liver, and lung were collected at 0.083, 0.25, 0.5, 1, 2, and 4 h after administration. Then, the concentration of two peptides in mouse plasma and tissues were quantitatively determined by liquid chromatography-tandem mass spectrometry (LC-MS/MS). The pharmacokinetic parameters were calculated by WinNonlin 6.1 software according to the […] model.

Another data set concerns NZB×NZW F1 lupus mice. The settings on record: intravenous once a month; cited from earlier work. From the text: (§2) Given the key role of anti-dsDNA antibodies in the pathogenesis of LN, development of specific inhibitors of anti-dsDNA antibodies may be a good method to manage LN. Several polypeptides, specifically reacting with mouse anti-dsDNA IgG2b, were identified by the peptide display phage library. […] FISLE-412, a small peptidomimetic modified from DWEYS peptide, blocked the binding of DNA to monoclonal mouse and human anti-dsDNA antibodies with improved affinity and selectivity. In ...

The subject of the next data set is murine model. The settings on record: cited from earlier work.
Text: as §2, with “IgG2a and IgG3 had higher affinity for autoantigens in the kidney, followed by IgG1, IgG2b, and IgM [12]. DWEYS peptide (DWEYSVWLSN) is a DNA-mimic peptide screened by a mouse pathogenic monoclonal antibody (IgG2b, R4A clone). […] FISLE-412, a peptide compound mimicking the molecular structure of DWEYS ... || Given” for “Given”

The test system of a further data set is anti-dsDNA IgGs. The note with it: cited from earlier work. From the text:
The ALW peptide is a small molecule with a molecular weight of 1.4 kDa. […] Because there is no methionine, cysteine, and glutamine, which are related with the oxidation, cyclization, and degradation of peptides, ALW may have greater physiological stability. In addition, the ALW peptide has a relatively neutral net charge (pI = 7.38), which probably decrease unnecessary, nonspecific protein-protein interactions. […] Here, after chemical modification ...

A short description of data set [3]: Tissue biodistribution of ALW peptide (kidney, liver, lung). In kind it is in vivo, CD1 mice. As for the experimental part: as §1
The mark [4] stands for this setting: read-out: MRT0-inf (mean residence time) in plasma.
[5] abbreviates: 8-week-old male CD1 mice, single intravenous dose 12.5 mg/kg, kidney tissue 0.083-4 h, LC-MS/MS, WinNonlin 6.1.
Where [6] appears, read: 8-week-old male CD1 mice, single intravenous dose 12.5 mg/kg, liver tissue 0.083-4 h, LC-MS/MS, WinNonlin 6.1.
The mark [7] stands for this setting: 8-week-old male CD1 mice, single intravenous dose 12.5 mg/kg, lung tissue 0.083-4 h, LC-MS/MS, WinNonlin 6.1.

Read-outs that look alike come from different tables or passages of the source. Non-standard residues stand in square brackets, D forms with d. Residues, ends and D or L forms follow the SMILES beside them. Some results are limits rather than exact numbers.

Take `CC(C)C[C@H](NC(=O)[C@@H](NC(=O)[C@H](Cc1c[nH]c2ccccc12)NC(=O)[C@@H]1CCCN1C(=O)[C@H](CC(N)=O)NC(=O)[C@H](Cc1c[nH]cn1)NC(=O)[C@@H]1CCCN1C(=O)[C@H](CC(C)C)NC(=O)[C@H]1CCCN1)C(C)C)C(=O)N[C@@H](C)C(=O)N[C@@H](C)C(=O)N[C@H](Cc1c[nH]c2ccccc12)C(=O)O` [PLP peptide, reference compound] (H-[dP]LPHNPWVLAA[dW]-OH): the “Anti-dsDNA antibodies in sera after treatment (immunogenicity)” value (“Anti-dsDNA antibodies in sera” for short) in the data set with BALB/c mice is “no detectable anti-dsDNA antibodies”. This compound also registered a Maximum solubility in data set [1] of 0.1 mg/mL. In addition, in data set [2], the “MRT0-inf (mean residence time) in plasma” value was 13.6 min. Also, in data set [2] (setting [4]), the MRT came to 13.8 min. For the same compound, the MRT in data set [2] (read-out: MRT0-last in plasma) is 11.4 min. For the same compound, in data set [2] (mouse), the C0 stood at 85.4 µg/mL; the clearance (in general, a measure of how efficiently the substance is removed, as volume per time) came out at 0.882 L/h/kg; the Vd turned out to be 0.2 L/kg. Further, in data set [2] (mouse, read-out: AUC0-inf in plasma), the AUC(0-inf) was 14.1 µg·h/mL. The AUC(0-t) in data set [2] (mouse, read-out: AUC0-last in plasma) came out at 14.1 µg·h/mL.

For the compound “FIEWNKLRFRQGLEW [pCons, 15-mer peptide based on MHC class I and II T cell determinants in the VH region of murine anti-dsDNA IgG2a or IgG2b]”, in the data set with NZB×NZW F1 lupus mice, the “Emergence of multiple autoantibodies” value is on record as “delayed the emergence of multiple autoantibodies”.

On to “DWEYSVWLSN [DWEYS peptide, DNA-mimic peptide … screened by a mouse pathogenic monoclonal antibody (IgG2b, R4A clone)]”, for which the “Renal deposition of IgG2b” value with murine model (SCID mice) is on record as “protected SCID mice from the renal deposition of IgG2b”. Further, the “Renal IgG deposition” value with murine model (murine model, intraperitoneal administration) is given as “evidently depressed”.

`CC(C)C[C@H](NC(=O)[C@H](CC(N)=O)NC(=O)[C@@H]1CCCN1C(=O)[C@@H]1CCCN1C(=O)[C@H](Cc1c[nH]c2ccccc12)NC(=O)[C@H](CC(C)C)NC(=O)[C@@H](C)N)C(=O)N[C@@H](Cc1c[nH]cn1)C(=O)N[C@@H](C)C(=O)N[C@@H](Cc1c[nH]c2ccccc12)C(=O)N[C@H](C(=O)N1CCC[C@@H]1C(=O)O)C(C)C` [ALW peptide] (H-[dA]LWPPNLHAWV[dP]-OH): in the data set with anti-dsDNA IgGs (after substituting two terminal residues A and P with D-form ones), the “Resistance of the peptide to catalysis” value is reported as “enhanced”. Also, the “Catalysis of the peptide by anti-dsDNA IgGs” value in the data set on anti-dsDNA IgGs (unmodified peptide) was “catalyzed weakly”. In data set [3] (setting [5]), this compound displayed an AUC0-inf in kidney of 28.80 ng·h/g, an AUC0-last in kidney of 25.51 ng·h/g, a Cmax in kidney of 60.00 ng/g and an MRT0-inf in kidney of 27.6 min. Besides, in data set [3] (setting [5]), the MRT0-last in kidney was found to be 19.8 min, the T1/2 in kidney was determined as 18.6 min and the Tmax in kidney came to 4.8 min. In data set [3] (8-week-old male CD1 mice, single intravenous dose 12.5 mg/kg, kidney versus plasma), the “Kp, kidney” value stood at 0.11. In addition, in data set [3] (setting [6]), the AUC0-last in liver stood at 2.29 ng·h/g, the Cmax in liver turned out to be 11.80 ng/g, the MRT0-last in liver was determined as 8.4 min and the Tmax in liver was found to be 4.8 min. For the same compound, the “Kp, liver” value in data set [3] (8-week-old male CD1 mice, single intravenous dose 12.5 mg/kg, liver versus plasma) was 0.01. In data set [3] (setting [7]), the AUC0-last in lung turned out to be 5.10 ng·h/g, the Cmax in lung was found to be 7.33 ng/g, the MRT0-last in lung turned out to be 29.4 min and the Tmax in lung is 15 min. Moreover, the “Kp, lung” value in data set [3] (8-week-old male CD1 mice, single intravenous dose 12.5 mg/kg, lung versus plasma) turned out to be 0.02. Moreover, the “Renal tissue exposure as share of plasma exposure” value in data set [3] (CD1 mice, intravenous 12.5 mg/kg, kidney) was “approximately 11.2%”. For the same compound, the “Liver tissue exposure as share of plasma exposure” value in data set [3] (CD1 mice, intravenous 12.5 mg/kg, liver) is reported as 0.892%. Further, the “Lung tissue exposure as share of plasma exposure” value in data set [3] (CD1 mice, intravenous 12.5 mg/kg, lung) came out at 1.99%. For the same compound, in the data set with BALB/c mice, the “Anti-dsDNA antibodies in sera” value was “induced no anti-dsDNA antibodies”. Moreover, the “Anti-dsDNA antibodies in sera” value in the data set on BALB/c mice (listed as ALW) was “no detectable anti-dsDNA antibodies”. This compound came in with a Maximum solubility in data set [1] of more than 0.1 mg/mL. For the same compound, the “Solubility in water or PBS” value in data set [1] (water or PBS) is reported as “easy to dissolve in water or PBS”. For the same compound, in data set [2], the AUC0-inf in plasma was determined as 0.264 µg·h/mL, the AUC0-last in plasma turned out to be 0.258 µg·h/mL, the “MRT0-inf (mean residence time) in plasma” value amounted to 7.8 min and the “T1/2 (elimination half-life) in plasma” value was 18.9 min. Moreover, in data set [2] (setting [4]), the MRT was 7.8 min. Also, the MRT in data set [2] (read-out: MRT0-last in plasma) amounted to 6 min. Further, in data set [2] (mouse), the C0 turned out to be 3.64 µg/mL, the clearance was determined as 47.3 L/h/kg and the Vd was 6.16 L/kg. For the same compound, in data set [2] (mouse, read-out: T1/2 (elimination half-life) in plasma (converted)), the half-life is 19.2 min.

(Values after publication PMC6889545, “ALW peptide ameliorates lupus nephritis in MRL/lpr mice” (Arthritis Research & Therapy, 2019).)
